Assay results as given in ChEMBL document CHEMBL2440080, “Synthesis and biological evaluation of novel acylhydrazone derivatives as potential antitumor agents” (Bioorg Med Chem, 2013).

Test system: CAKI-1
Assay: Cytotoxicity against human CAKI-1 cells after 48 hrs by sulforhodamine B assay
Assay type: functional
Conditions: CAKI-1, 48 h

| SMILES | GI50 [nM] |
| --- | --- |
| CCOc1cccc(/C=N/NC(=O)c2ccc(Nc3ccnc(C(F)(F)F)c3)cc2)c1O | 631 |
| O=C(Cc1ccc(Nc2ccnc(C(F)(F)F)c2)cc1)N/N=C/c1ccccc1O | 1000 |

Test system: T47D
Assay: Cytotoxicity against human T47D cells after 48 hrs by sulforhodamine B assay
Assay type: functional
Conditions: not given

| SMILES | GI50 [nM] |
| --- | --- |
| CCOc1cccc(/C=N/NC(=O)c2ccc(Nc3ccnc(C(F)(F)F)c3)cc2)c1O | 1580 |
| O=C(Cc1ccc(Nc2ccnc(C(F)(F)F)c2)cc1)N/N=C/c1ccccc1O | 3980 |

Test system: BT-549
Assay: Cytotoxicity against human BT549 cells after 48 hrs by sulforhodamine B assay
Assay type: functional
Conditions: BT-549, 48 h

| SMILES | GI50 [nM] |
| --- | --- |
| CCOc1cccc(/C=N/NC(=O)c2ccc(Nc3ccnc(C(F)(F)F)c3)cc2)c1O | 1580 |
| O=C(Cc1ccc(Nc2ccnc(C(F)(F)F)c2)cc1)N/N=C/c1ccccc1O | 2510 |

Test system: NCI/ADR-RES
Assay: Cytotoxicity against human NCI/ADR-RES cells after 48 hrs by sulforhodamine B assay
Assay type: functional
Conditions: not given

| SMILES | GI50 [nM] |
| --- | --- |
| CCOc1cccc(/C=N/NC(=O)c2ccc(Nc3ccnc(C(F)(F)F)c3)cc2)c1O | 3160 |
| O=C(Cc1ccc(Nc2ccnc(C(F)(F)F)c2)cc1)N/N=C/c1ccccc1O | 3160 |

Test system: DU-145
Assay: Cytotoxicity against human DU145 cells after 48 hrs by sulforhodamine B assay
Assay type: functional
Conditions: DU-145, 48 h

| SMILES | GI50 [nM] |
| --- | --- |
| CCOc1cccc(/C=N/NC(=O)c2ccc(Nc3ccnc(C(F)(F)F)c3)cc2)c1O | 3980 |
| O=C(Cc1ccc(Nc2ccnc(C(F)(F)F)c2)cc1)N/N=C/c1ccccc1O | 5010 |

Test system: PC-3
Assay: Cytotoxicity against human PC3 cells after 48 hrs by sulforhodamine B assay
Assay type: functional
Conditions: PC-3, 48 h

| SMILES | GI50 [nM] |
| --- | --- |
| CCOc1cccc(/C=N/NC(=O)c2ccc(Nc3ccnc(C(F)(F)F)c3)cc2)c1O | 398 |
| O=C(Cc1ccc(Nc2ccnc(C(F)(F)F)c2)cc1)N/N=C/c1ccccc1O | 794 |

Test system: TK-10
Assay: Cytotoxicity against human TK10 cells after 48 hrs by sulforhodamine B assay
Assay type: functional
Conditions: TK-10, 48 h

| SMILES | GI50 [nM] |
| --- | --- |
| CCOc1cccc(/C=N/NC(=O)c2ccc(Nc3ccnc(C(F)(F)F)c3)cc2)c1O | 2510 |
| O=C(Cc1ccc(Nc2ccnc(C(F)(F)F)c2)cc1)N/N=C/c1ccccc1O | 7940 |

Test system: ACHN
Assay: Cytotoxicity against human ACHN cells after 48 hrs by sulforhodamine B assay
Assay type: functional
Conditions: not given

| SMILES | GI50 [nM] |
| --- | --- |
| CCOc1cccc(/C=N/NC(=O)c2ccc(Nc3ccnc(C(F)(F)F)c3)cc2)c1O | 1000 |
| O=C(Cc1ccc(Nc2ccnc(C(F)(F)F)c2)cc1)N/N=C/c1ccccc1O | 1580 |

Test system: RXF 393
Assay: Cytotoxicity against human RXF393 cells after 48 hrs by sulforhodamine B assay
Assay type: functional
Conditions: RXF 393, 48 h

| SMILES | GI50 [nM] |
| --- | --- |
| CCOc1cccc(/C=N/NC(=O)c2ccc(Nc3ccnc(C(F)(F)F)c3)cc2)c1O | 398 |
| O=C(Cc1ccc(Nc2ccnc(C(F)(F)F)c2)cc1)N/N=C/c1ccccc1O | 1580 |

Test system: OVCAR-8
Assay: Cytotoxicity against human OVCAR8 cells after 48 hrs by sulforhodamine B assay
Assay type: functional
Conditions: OVCAR-8, 48 h

| SMILES | GI50 [nM] |
| --- | --- |
| CCOc1cccc(/C=N/NC(=O)c2ccc(Nc3ccnc(C(F)(F)F)c3)cc2)c1O | 631 |
| O=C(Cc1ccc(Nc2ccnc(C(F)(F)F)c2)cc1)N/N=C/c1ccccc1O | 2510 |

Test system: OVCAR-4
Assay: Cytotoxicity against human OVCAR4 cells after 48 hrs by sulforhodamine B assay
Assay type: functional
Conditions: OVCAR-4, 48 h

| SMILES | GI50 [nM] |
| --- | --- |
| CCOc1cccc(/C=N/NC(=O)c2ccc(Nc3ccnc(C(F)(F)F)c3)cc2)c1O | 794 |
| O=C(Cc1ccc(Nc2ccnc(C(F)(F)F)c2)cc1)N/N=C/c1ccccc1O | 3160 |

Test system: IGROV-1
Assay: Cytotoxicity against human IGROV1 cells after 48 hrs by sulforhodamine B assay
Assay type: functional
Conditions: IGROV-1, 48 h

| SMILES | GI50 [nM] |
| --- | --- |
| CCOc1cccc(/C=N/NC(=O)c2ccc(Nc3ccnc(C(F)(F)F)c3)cc2)c1O | 501 |
| O=C(Cc1ccc(Nc2ccnc(C(F)(F)F)c2)cc1)N/N=C/c1ccccc1O | 794 |

Test system: OVCAR-3
Assay: Cytotoxicity against human OVCAR3 cells after 48 hrs by sulforhodamine B assay
Assay type: functional
Conditions: OVCAR-3, 48 h

| SMILES | GI50 [nM] |
| --- | --- |
| CCOc1cccc(/C=N/NC(=O)c2ccc(Nc3ccnc(C(F)(F)F)c3)cc2)c1O | 316 |
| O=C(Cc1ccc(Nc2ccnc(C(F)(F)F)c2)cc1)N/N=C/c1ccccc1O | 794 |

Test system: UACC-62
Assay: Cytotoxicity against human UACC62 cells after 48 hrs by sulforhodamine B assay
Assay type: functional
Conditions: UACC-62, 48 h

| SMILES | GI50 [nM] |
| --- | --- |
| CCOc1cccc(/C=N/NC(=O)c2ccc(Nc3ccnc(C(F)(F)F)c3)cc2)c1O | 794 |
| O=C(Cc1ccc(Nc2ccnc(C(F)(F)F)c2)cc1)N/N=C/c1ccccc1O | 2000 |

Test system: M14
Assay: Cytotoxicity against human M14 cells after 48 hrs by sulforhodamine B assay
Assay type: functional
Conditions: M14, 48 h

| SMILES | GI50 [nM] |
| --- | --- |
| CCOc1cccc(/C=N/NC(=O)c2ccc(Nc3ccnc(C(F)(F)F)c3)cc2)c1O | 1260 |
| O=C(Cc1ccc(Nc2ccnc(C(F)(F)F)c2)cc1)N/N=C/c1ccccc1O | 2000 |

Test system: LOX IMVI
Assay: Cytotoxicity against human LOXIMVI cells after 48 hrs by sulforhodamine B assay
Assay type: functional
Conditions: not given

| SMILES | GI50 [nM] |
| --- | --- |
| CCOc1cccc(/C=N/NC(=O)c2ccc(Nc3ccnc(C(F)(F)F)c3)cc2)c1O | 631 |
| O=C(Cc1ccc(Nc2ccnc(C(F)(F)F)c2)cc1)N/N=C/c1ccccc1O | 1000 |

Test system: SNB-75
Assay: Cytotoxicity against human SNB75 cells after 48 hrs by sulforhodamine B assay
Assay type: functional
Conditions: SNB-75, 48 h

| SMILES | GI50 [nM] |
| --- | --- |
| CCOc1cccc(/C=N/NC(=O)c2ccc(Nc3ccnc(C(F)(F)F)c3)cc2)c1O | 631 |
| O=C(Cc1ccc(Nc2ccnc(C(F)(F)F)c2)cc1)N/N=C/c1ccccc1O | 2000 |

Test system: U-251
Assay: Cytotoxicity against human U251 cells after 48 hrs by sulforhodamine B assay
Assay type: functional
Conditions: U-251, 48 h

| SMILES | GI50 [nM] |
| --- | --- |
| CCOc1cccc(/C=N/NC(=O)c2ccc(Nc3ccnc(C(F)(F)F)c3)cc2)c1O | 1580 |
| O=C(Cc1ccc(Nc2ccnc(C(F)(F)F)c2)cc1)N/N=C/c1ccccc1O | 2000 |

Test system: SF-295
Assay: Cytotoxicity against human SF295 cells after 48 hrs by sulforhodamine B assay
Assay type: functional
Conditions: SF-295, 48 h

| SMILES | GI50 [nM] |
| --- | --- |
| CCOc1cccc(/C=N/NC(=O)c2ccc(Nc3ccnc(C(F)(F)F)c3)cc2)c1O | 1260 |
| O=C(Cc1ccc(Nc2ccnc(C(F)(F)F)c2)cc1)N/N=C/c1ccccc1O | 2510 |

Test system: SF-268
Assay: Cytotoxicity against human SF268 cells after 48 hrs by sulforhodamine B assay
Assay type: functional
Conditions: SF-268, 48 h

| SMILES | GI50 [nM] |
| --- | --- |
| CCOc1cccc(/C=N/NC(=O)c2ccc(Nc3ccnc(C(F)(F)F)c3)cc2)c1O | 1260 |
| O=C(Cc1ccc(Nc2ccnc(C(F)(F)F)c2)cc1)N/N=C/c1ccccc1O | 2510 |

Test system: KM12
Assay: Cytotoxicity against human KM12 cells after 48 hrs by sulforhodamine B assay
Assay type: functional
Conditions: KM12, 48 h

| SMILES | GI50 [nM] |
| --- | --- |
| CCOc1cccc(/C=N/NC(=O)c2ccc(Nc3ccnc(C(F)(F)F)c3)cc2)c1O | 1580 |
| O=C(Cc1ccc(Nc2ccnc(C(F)(F)F)c2)cc1)N/N=C/c1ccccc1O | 2000 |

Test system: HCT-116
Assay: Cytotoxicity against human HCT116 cells after 48 hrs by sulforhodamine B assay
Assay type: functional
Conditions: HCT-116, 48 h

| SMILES | GI50 [nM] |
| --- | --- |
| CCOc1cccc(/C=N/NC(=O)c2ccc(Nc3ccnc(C(F)(F)F)c3)cc2)c1O | 398 |
| O=C(Cc1ccc(Nc2ccnc(C(F)(F)F)c2)cc1)N/N=C/c1ccccc1O | 2000 |

Test system: HCT-15
Assay: Cytotoxicity against human HCT15 cells after 48 hrs by sulforhodamine B assay
Assay type: functional
Conditions: HCT-15, 48 h

| SMILES | GI50 [nM] |
| --- | --- |
| CCOc1cccc(/C=N/NC(=O)c2ccc(Nc3ccnc(C(F)(F)F)c3)cc2)c1O | 631 |
| O=C(Cc1ccc(Nc2ccnc(C(F)(F)F)c2)cc1)N/N=C/c1ccccc1O | 631 |

Test system: NCI-H460
Assay: Cytotoxicity against human NCI-H460 cells after 48 hrs by sulforhodamine B assay
Assay type: functional
Conditions: NCI-H460, 48 h

| SMILES | GI50 [nM] |
| --- | --- |
| CCOc1cccc(/C=N/NC(=O)c2ccc(Nc3ccnc(C(F)(F)F)c3)cc2)c1O | 501 |
| O=C(Cc1ccc(Nc2ccnc(C(F)(F)F)c2)cc1)N/N=C/c1ccccc1O | 794 |

Test system: NCI-H322M
Assay: Cytotoxicity against human NCI-H322M cells after 48 hrs by sulforhodamine B assay
Assay type: functional
Conditions: not given

| SMILES | GI50 [nM] |
| --- | --- |
| CCOc1cccc(/C=N/NC(=O)c2ccc(Nc3ccnc(C(F)(F)F)c3)cc2)c1O | 1260 |
| O=C(Cc1ccc(Nc2ccnc(C(F)(F)F)c2)cc1)N/N=C/c1ccccc1O | 2510 |

Test system: HOP-92
Assay: Cytotoxicity against human HOP92 cells after 48 hrs by sulforhodamine B assay
Assay type: functional
Conditions: HOP-92, 48 h

| SMILES | GI50 [nM] |
| --- | --- |
| CCOc1cccc(/C=N/NC(=O)c2ccc(Nc3ccnc(C(F)(F)F)c3)cc2)c1O | 631 |
| O=C(Cc1ccc(Nc2ccnc(C(F)(F)F)c2)cc1)N/N=C/c1ccccc1O | 2510 |

Test system: not listed separately
Assay: Cytotoxicity against human EKVX cells after 48 hrs by sulforhodamine B assay
Assay type: functional
Conditions: not given

| SMILES | GI50 [nM] |
| --- | --- |
| CCOc1cccc(/C=N/NC(=O)c2ccc(Nc3ccnc(C(F)(F)F)c3)cc2)c1O | 1000 |
| O=C(Cc1ccc(Nc2ccnc(C(F)(F)F)c2)cc1)N/N=C/c1ccccc1O | 3160 |

Test system: HOP-62
Assay: Cytotoxicity against human HOP62 cells after 48 hrs by sulforhodamine B assay
Assay type: functional
Conditions: HOP-62, 48 h

| SMILES | GI50 [nM] |
| --- | --- |
| CCOc1cccc(/C=N/NC(=O)c2ccc(Nc3ccnc(C(F)(F)F)c3)cc2)c1O | 1260 |
| O=C(Cc1ccc(Nc2ccnc(C(F)(F)F)c2)cc1)N/N=C/c1ccccc1O | 2510 |

Test system: SR
Assay: Cytotoxicity against human SR cells after 48 hrs by sulforhodamine B assay
Assay type: functional
Conditions: not given

| SMILES | GI50 [nM] |
| --- | --- |
| CCOc1cccc(/C=N/NC(=O)c2ccc(Nc3ccnc(C(F)(F)F)c3)cc2)c1O | 251 |
| O=C(Cc1ccc(Nc2ccnc(C(F)(F)F)c2)cc1)N/N=C/c1ccccc1O | 316 |

Test system: RPMI-8226
Assay: Cytotoxicity against human RPMI8226 cells after 48 hrs by sulforhodamine B assay
Assay type: functional
Conditions: RPMI-8226, 48 h

| SMILES | GI50 [nM] |
| --- | --- |
| CCOc1cccc(/C=N/NC(=O)c2ccc(Nc3ccnc(C(F)(F)F)c3)cc2)c1O | 398 |
| O=C(Cc1ccc(Nc2ccnc(C(F)(F)F)c2)cc1)N/N=C/c1ccccc1O | 1000 |

Test system: MOLT-4
Assay: Cytotoxicity against human MOLT4 cells after 48 hrs by sulforhodamine B assay
Assay type: functional
Conditions: MOLT-4, 48 h

| SMILES | GI50 [nM] |
| --- | --- |
| CCOc1cccc(/C=N/NC(=O)c2ccc(Nc3ccnc(C(F)(F)F)c3)cc2)c1O | 251 |
| O=C(Cc1ccc(Nc2ccnc(C(F)(F)F)c2)cc1)N/N=C/c1ccccc1O | 1000 |

Test system: CCRF-CEM
Assay: Cytotoxicity against human CCRF-CEM cells after 48 hrs by sulforhodamine B assay
Assay type: functional
Conditions: not given

| SMILES | GI50 [nM] |
| --- | --- |
| CCOc1cccc(/C=N/NC(=O)c2ccc(Nc3ccnc(C(F)(F)F)c3)cc2)c1O | 501 |
| O=C(Cc1ccc(Nc2ccnc(C(F)(F)F)c2)cc1)N/N=C/c1ccccc1O | 1260 |

Test system: HL-60(TB)
Assay: Cytotoxicity against human HL-60(TB) cells after 48 hrs by sulforhodamine B assay
Assay type: functional
Conditions: HL-60, 48 h

| SMILES | GI50 [nM] |
| --- | --- |
| CCOc1cccc(/C=N/NC(=O)c2ccc(Nc3ccnc(C(F)(F)F)c3)cc2)c1O | 1260 |
| O=C(Cc1ccc(Nc2ccnc(C(F)(F)F)c2)cc1)N/N=C/c1ccccc1O | 2510 |
